# Measured values from patent publication US8278288B2, “Organosiloxanes containing ester derivatives of ascorbic acid” (Dow Corning Corporation, priority 2007, dated 2012).
# Read-outs that look alike come from different tables or passages of the source. Marks after values point to notes of the source that are not given here.
# Tests used:
# [1] = Solubility in various personal care solvents
# Protocol: A 36 wt % mixture of the referenced sample and listed solvents were prepared in a glass vial. The sealed glass vials containing the mixtures were then placed in a 60° C. water bath and periodically shaken and observed.
# [2] = tested on: Melanoderm tissue model MEL 300 A; test: Skin whitening effect: melanin concentration in MelanoDerm tissue model; type: cell-based, human
# Protocol: This example illustrates cell viability properties and efficacy of skin lightening formulations according to the present invention. In particular, two formulations according to the present invention (containing AUTS as prepared according to Example 4), water (a negative control), 1% kojic acid (Sigma, Wis.) in water (positive control), and ascorbyl tetraisopalmitate in D5 (decamethylcyclopentasiloxane) were assayed and compared for cell viability and skin lightening efficacy (see Table 1) MELANODERM™ cell viability was tested by MTT assay after exposure to test and reference preparations. The assays were carried out using Melanoderm tissue model MEL 300 A cell line (MELANODERM tissue model available from MatTek, Ashland, Mass.), This melanoderm model consists of normal, human-derived epidermal keratinocytes and melanocytes that have been co-cultured to form a multilayer, highly differentiated model of human epidermis. […] (Cell viability with both materials in D5 at 10 and 25 μL dose was >90%). Skin whitening effect was evaluated by measuring melanin concentration (μg/ml) after six applications of each preparation.
# [3] = 36 wt % mixture, 60° C. water bath, ** = nearly clear to hazy solution, gels when cooled to room temperature
# [4] = 10 μl dose, six applications, in D5 (AUTS 3.2 wt %, VC-IP 6.4%)
# [5] = 25 μl dose, six applications, in D5 (AUTS 3.2 wt %, VC-IP 6.4%)
Compound,"Melanin concentration at Day 10, Average [2, 4]","Melanin concentration at Day 10, Average [2, 5]",Solubility in A = C12-15 Alkyl Benzoate (FINSOLV TN) [1],Solubility in B = Cyclopentasiloxane (Dow/Corning 245 Fluid) [1],Solubility in C = Squalane (Uniqema PRIPURE 3759) [1],Solubility in D = Tricaprylin (TRIVENT OC-G) [1],Solubility in Water [1],also measured
"C[Si](C)(C)O[Si](C)(CCCCCCCCCCC(=O)OCC(O)C1OC(=O)C(O)=C1O)O[Si](C)(C)C (centres unmarked) [AUTS, Ascorbyl Undecyl Trisiloxane]",37.4* μg/ml,26.6** μg/ml,,,,,,"Solubility in Water ([1]; 36 wt % mixture, 60° C. water bath, * = translucent mixture that thickens to a viscous hazy liquid when cooled): No; Solubility in A = C12-15 Alkyl Benzoate (FINSOLV TN) [1, 3]: Yes**; Solubility in B = Cyclopentasiloxane (Dow/Corning 245 Fluid) [1, 3]: Yes**; Solubility in C = Squalane (Uniqema PRIPURE 3759) [1, 3]: Yes**; Solubility in E = Caprylic/Capric Triglyceride [1, 3]: Yes**"
Bis-Ascorbyl Undecyl Polydimethylsiloxane [Comparative sample #2],,,Yes,No,No,Yes,No,
"O=c1cc(CO)occ1O [Kojic Acid, kojic acid]",,,,,,,,"Melanin concentration at Day 10, Average ([2]; 25 μL dose, 1 wt % in water, six applications (positive control)): 41.9 µg/mL"
Bis-Ascorbyl Undecyl Tetramethyldisiloxane [Comparative sample #1],,,No,No,No,No,Yes*,
"CCCCCCCCC(CCCCCC)C(=O)OC[C@H](OC(=O)C(CCCCCC)CCCCCCCC)[C@H]1OC(=O)C(OC(=O)C(CCCCCC)CCCCCCCC)=C1OC(=O)C(CCCCCC)CCCCCCCC (some centres unmarked) [VC-IP, ascorbyl tetraisopalmitate]",57.8* μg/ml,55.2** μg/ml,,,,,,
